According to the NIST ThermoML archive (doi:10.1016/j.jct.2017.06.001):
± gives the expanded uncertainty stated by the source.

Assay: xn = mol fraction of the nth substance listed
Conditions: 100 kPa, Liquid; for speed of sound: Frequency=5 MHz, Pulse-echo method; for mass density: Vibrating tube method

OCCCCCO [1,5-pentanediol] + O
Conditions	mass density [kg/m3]	speed of sound [m/s]
313.15 K, x1 = 0.005	991.7 ± 0.52	–
313.15 K, x1 = 0.0101	991.52 ± 1	–
313.15 K, x1 = 0.0196	991.54 ± 1	–
313.15 K, x1 = 0.0251	991.82 ± 1	–
313.15 K, x1 = 0.0304	992.13 ± 1	–
313.15 K, x1 = 0.05	992.81 ± 1	–
313.15 K, x1 = 0.0769	993.24 ± 1	–
313.15 K, x1 = 0.1002	993.63 ± 1.1	–
313.15 K, x1 = 0.1124	–	1653.6 ± 1.2
313.15 K, x1 = 0.1158	–	1654.3 ± 1.2
313.15 K, x1 = 0.1193	–	1654.9 ± 1.2
313.15 K, x1 = 0.1244	–	1655.7 ± 1.2
313.15 K, x1 = 0.1287	–	1656.2 ± 1.2
313.15 K, x1 = 0.1321	–	1656.6 ± 1.2
313.15 K, x1 = 0.1361	–	1656.9 ± 1.2
313.15 K, x1 = 0.1413	–	1657.3 ± 1.2
313.15 K, x1 = 0.1438	993.61 ± 1.1	–
313.15 K, x1 = 0.1453	–	1657.5 ± 1.2
313.15 K, x1 = 0.1493	–	1657.7 ± 1.3
313.15 K, x1 = 0.1538	–	1657.8 ± 1.3
313.15 K, x1 = 0.1569	–	1657.8 ± 1.3
313.15 K, x1 = 0.1592	–	1657.9 ± 1.3
313.15 K, x1 = 0.1624	–	1657.9 ± 1.3
313.15 K, x1 = 0.1645	–	1657.9 ± 1.3
313.15 K, x1 = 0.1677	–	1657.8 ± 1.3
313.15 K, x1 = 0.1703	–	1657.8 ± 1.3
313.15 K, x1 = 0.174	–	1657.7 ± 1.3
313.15 K, x1 = 0.1785	–	1657.6 ± 1.3
313.15 K, x1 = 0.1796	–	1657.5 ± 1.3
313.15 K, x1 = 0.1845	993.02 ± 1.1	–
313.15 K, x1 = 0.1854	–	1657.3 ± 1.3
313.15 K, x1 = 0.1882	–	1657.2 ± 1.3
313.15 K, x1 = 0.1986	–	1656.6 ± 1.3
313.15 K, x1 = 0.2089	–	1656 ± 1.3
313.15 K, x1 = 0.2219	–	1655 ± 1.3
313.15 K, x1 = 0.2336	–	1654.1 ± 1.3
313.15 K, x1 = 0.2458	–	1653 ± 1.3
313.15 K, x1 = 0.2503	991.87 ± 1.2	–
313.15 K, x1 = 0.2586	–	1651.8 ± 1.3
313.15 K, x1 = 0.2742	–	1650.3 ± 1.4
313.15 K, x1 = 0.2871	–	1649 ± 1.4
313.15 K, x1 = 0.3	990.74 ± 1.2	–
313.15 K, x1 = 0.3037	–	1647.3 ± 1.4
313.15 K, x1 = 0.3173	–	1645.8 ± 1.4
313.15 K, x1 = 0.3343	989.99 ± 1.3	–
313.15 K, x1 = 0.3466	–	1642.6 ± 1.4
313.15 K, x1 = 0.366	–	1640.3 ± 1.4
313.15 K, x1 = 0.3864	–	1637.9 ± 1.5
313.15 K, x1 = 0.401	–	1636.1 ± 1.5
313.15 K, x1 = 0.4171	988.35 ± 1.4	–
313.15 K, x1 = 0.4198	–	1633.7 ± 1.5
313.15 K, x1 = 0.4339	–	1631.8 ± 1.5
313.15 K, x1 = 0.4516	–	1629.5 ± 1.5
313.15 K, x1 = 0.454	987.5 ± 1.4	–
313.15 K, x1 = 0.4639	–	1627.8 ± 1.6
313.15 K, x1 = 0.4723	–	1626.7 ± 1.6
313.15 K, x1 = 0.4915	–	1624 ± 1.6
313.15 K, x1 = 0.5003	986.6 ± 1.5	–
313.15 K, x1 = 0.5111	–	1621.3 ± 1.6
313.15 K, x1 = 0.5315	–	1618.4 ± 1.6
313.15 K, x1 = 0.5362	985.8 ± 1.5	–
313.15 K, x1 = 0.5529	–	1615.4 ± 1.7
313.15 K, x1 = 0.5804	–	1611.5 ± 1.7
313.15 K, x1 = 0.602	–	1608.5 ± 1.7
313.15 K, x1 = 0.6163	–	1606.5 ± 1.8
313.15 K, x1 = 0.6177	984.4 ± 1.7	–
313.15 K, x1 = 0.6349	–	1604 ± 1.8
313.15 K, x1 = 0.6478	983.9 ± 1.7	–
313.15 K, x1 = 0.6533	–	1601.5 ± 1.8
313.15 K, x1 = 0.6749	–	1598.6 ± 1.8
313.15 K, x1 = 0.6932	–	1596.3 ± 1.9
313.15 K, x1 = 0.7025	983 ± 1.8	–
313.15 K, x1 = 0.7095	–	1594.2 ± 1.9
313.15 K, x1 = 0.7237	–	1592.4 ± 1.9
313.15 K, x1 = 0.7448	–	1589.9 ± 1.9
313.15 K, x1 = 0.7504	982.3 ± 1.9	–
313.15 K, x1 = 0.7666	–	1587.3 ± 1.9
313.15 K, x1 = 0.7927	981.6 ± 2	–
313.15 K, x1 = 0.794	–	1584.1 ± 2
313.15 K, x1 = 0.8188	–	1581.3 ± 2
313.15 K, x1 = 0.8485	–	1578 ± 2.1
313.15 K, x1 = 0.8605	980.4 ± 2.1	–
313.15 K, x1 = 0.875	–	1575.1 ± 2.1
313.15 K, x1 = 0.9004	979.7 ± 2.2	–
313.15 K, x1 = 0.9027	–	1572.1 ± 2.2
313.15 K, x1 = 0.9251	–	1569.5 ± 2.2
313.15 K, x1 = 0.9471	–	1566.9 ± 2.2
313.15 K, x1 = 0.9496	978.8 ± 2.3	–
313.15 K, x1 = 0.9652	–	1564.7 ± 2.2
313.15 K, x1 = 0.9777	–	1563.1 ± 2.3
313.15 K, x1 = 0.9877	–	1561.8 ± 2.3
313.15 K, x1 = 0.9953	–	1560.8 ± 2.3
313.15 K, x1 = 1	977.8 ± 2.1	1560.2 ± 2.3
318.15 K, x1 = 0.0005	–	1538 ± 1.2
318.15 K, x1 = 0.0015	–	1540.6 ± 1.2
318.15 K, x1 = 0.0027	–	1543.4 ± 1.2
318.15 K, x1 = 0.0039	–	1546.4 ± 1.2
318.15 K, x1 = 0.0049	–	1548.8 ± 1.2
318.15 K, x1 = 0.0058	–	1550.9 ± 1.2
318.15 K, x1 = 0.0069	–	1553.4 ± 1.2
318.15 K, x1 = 0.008	–	1556 ± 1.2
318.15 K, x1 = 0.0092	–	1558.5 ± 1.2
318.15 K, x1 = 0.0106	–	1561.6 ± 1.2
318.15 K, x1 = 0.0116	–	1563.7 ± 1.2
318.15 K, x1 = 0.0129	–	1566.4 ± 1.2
318.15 K, x1 = 0.0141	–	1568.7 ± 1.2
318.15 K, x1 = 0.0154	–	1571.2 ± 1.2
318.15 K, x1 = 0.0168	–	1573.9 ± 1.2
318.15 K, x1 = 0.0184	–	1576.8 ± 1.2
318.15 K, x1 = 0.0196	–	1578.9 ± 1.2
318.15 K, x1 = 0.0215	–	1582.2 ± 1.2
318.15 K, x1 = 0.0231	–	1584.8 ± 1.2
318.15 K, x1 = 0.0246	–	1587.2 ± 1.2
318.15 K, x1 = 0.0263	–	1589.8 ± 1.2
318.15 K, x1 = 0.0283	–	1592.8 ± 1.2
318.15 K, x1 = 0.0298	–	1594.9 ± 1.2
318.15 K, x1 = 0.0316	–	1597.5 ± 1.2
318.15 K, x1 = 0.0337	–	1600.2 ± 1.2
318.15 K, x1 = 0.0357	–	1602.8 ± 1.2
318.15 K, x1 = 0.0378	–	1605.4 ± 1.2
318.15 K, x1 = 0.0403	–	1608.2 ± 1.2
318.15 K, x1 = 0.043	–	1611.2 ± 1.2
318.15 K, x1 = 0.0456	–	1613.9 ± 1.2
318.15 K, x1 = 0.0487	–	1616.8 ± 1.2
318.15 K, x1 = 0.0503	–	1618.2 ± 1.2
318.15 K, x1 = 0.0516	–	1619.4 ± 1.2
318.15 K, x1 = 0.0548	–	1622.1 ± 1.2
318.15 K, x1 = 0.0584	–	1624.9 ± 1.2
318.15 K, x1 = 0.0657	–	1629.8 ± 1.2
318.15 K, x1 = 0.0682	–	1631.3 ± 1.2
318.15 K, x1 = 0.072	–	1633.3 ± 1.2
318.15 K, x1 = 0.0763	–	1635.4 ± 1.2
318.15 K, x1 = 0.0796	–	1636.9 ± 1.2
318.15 K, x1 = 0.0848	–	1639 ± 1.2
318.15 K, x1 = 0.0893	–	1640.5 ± 1.2
318.15 K, x1 = 0.0963	–	1642.5 ± 1.2
318.15 K, x1 = 0.1022	–	1643.9 ± 1.2
318.15 K, x1 = 0.1063	–	1644.7 ± 1.2
318.15 K, x1 = 0.1107	–	1645.4 ± 1.2
318.15 K, x1 = 0.1147	–	1646 ± 1.2
318.15 K, x1 = 0.1186	–	1646.4 ± 1.2
318.15 K, x1 = 0.1227	–	1646.8 ± 1.2
318.15 K, x1 = 0.1267	–	1647.1 ± 1.2
318.15 K, x1 = 0.1324	–	1647.4 ± 1.2
318.15 K, x1 = 0.138	–	1647.6 ± 1.2
318.15 K, x1 = 0.1421	–	1647.7 ± 1.2
318.15 K, x1 = 0.1467	–	1647.7 ± 1.2
318.15 K, x1 = 0.151	–	1647.7 ± 1.3
318.15 K, x1 = 0.1559	–	1647.6 ± 1.3
318.15 K, x1 = 0.1604	–	1647.4 ± 1.3
318.15 K, x1 = 0.1642	–	1647.3 ± 1.3
318.15 K, x1 = 0.1668	–	1647.1 ± 1.3
318.15 K, x1 = 0.17	–	1647 ± 1.3
318.15 K, x1 = 0.1746	–	1646.7 ± 1.3
318.15 K, x1 = 0.1759	–	1646.6 ± 1.3
318.15 K, x1 = 0.1805	–	1646.3 ± 1.3
318.15 K, x1 = 0.1834	–	1646.1 ± 1.3
